# According to patent US8853246B2 (Dow AgroSciences LLC, priority 2009, dated 2014):
# Read-outs that look alike come from different tables or passages of the source.
# How the values were obtained:
# [1] = system: Green Peach Aphid (Myzus Persicae); assay: Insecticidal test for green peach aphid in foliar spray assay (col. MYZUPE); format: in vivo; settings: Myzus persicae, 72 h, read-out: MYZUPE 200 ppm (Corrected % Control, rating)
# In short: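 Corrected % control derives from microscope counts of live aphids per plant, treated against diluent-only checks, 3 days after foliar spraying at ~25 °C and 40% RH. Test solution was 200 ppm in 0.025% aqueous Tween 20, applied to both leaf sides of infested cabbage seedlings, four pots each.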
# [2] = system: Sweetpotato Whitefly-Crawler (Bemisia Tabaci); assay: Insecticidal test for sweetpotato whitefly-crawler in foliar spray assay (col. BEMITA); format: in vivo; settings: Bemisia tabaci, read-out: BEMITA 200 ppm (Corrected % Control, rating)
# In short: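 Percent control, Abbott-corrected against diluent-sprayed plants, from microscope counts of live nymphs 8-9 days after treatment. Test solution at 200 ppm in 0.025% aqueous Tween 20 applied to both leaf sides of egg-infested cotton after a 5-6 day hatch period (82° F, 50% RH).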
SMILES,pest or weed control at 200 ppm ([1]; green peach aphid),pest or weed control at 200 ppm ([2]; sweetpotato whitefly-crawler),melting point,pest or weed control at 200 ppm ([1]; Abbott's correction formula),pest or weed control at 200 ppm ([2]; Abbott's correction formula)
CC(=O)N(C)c1cnc(-c2cccnc2)s1 [Compound 22],< 80%,< 80%,162 to 163 °C,–,–
CN(C(=O)C(C)(C)C)c1cnc(-c2cccnc2)s1 [Compound 23],80 to 100%,< 80%,102 to 105 °C,–,–
CC(C)C(=O)N(C)c1cnc(-c2cccnc2)s1 [Compound 24],80 to 100%,80 to 100%,113 to 114 °C,–,–
CN(C(=O)CC(F)(F)F)c1cnc(-c2cccnc2)s1 [Compound 25],80 to 100%,< 80%,126 to 128 °C,–,–
CN(C(=O)c1cccnc1)c1cnc(-c2cccnc2)s1 [Compound 26],< 80%,< 80%,173 to 175 °C,–,–
COC(=O)CCC(=O)N(C)c1cnc(-c2cccnc2)s1 [Compound 27],80 to 100%,< 80%,127 to 129 °C,–,–
CSCC(C)C(=O)N(C)c1cnc(-c2cccnc2)s1 (stereo not drawn) [Compound 28],80 to 100%,80 to 100%,98 to 100 °C,–,–
CSCC(C)(C)C(=O)N(C)c1cnc(-c2cccnc2)s1 [Compound 29],80 to 100%,80 to 100%,92 to 94 °C,–,–
"CSCCC(=O)N(C)c1cnc(-c2cncc(F)c2)s1 [Compound 30, N-[2-(5-fluoro-pyridin-3-yl)-thiazol-5-yl]-N-methyl-3-methylsulfanyl-propionamide]",80 to 100%,< 80%,111 to 114 °C,–,–
CSCC(C)C(=O)N(C)c1cnc(-c2cncc(F)c2)s1 (stereo not drawn) [Compound 31],80 to 100%,80 to 100%,75 to 77 °C,–,–
CC(C)C(=O)N(C)c1cnc(-c2cncc(F)c2)s1 [Compound 32],80 to 100%,80 to 100%,156 to 158 °C,–,–
CN(C(=O)C(C)(C)C)c1cnc(-c2cncc(F)c2)s1 [Compound 33],< 80%,80 to 100%,153 to 155 °C,–,–
CSCC(C)(C)C(=O)N(C)c1sc(-c2cccnc2)nc1C [Compound 34],80 to 100%,80 to 100%,83 to 88 °C,–,–
Cc1nc(-c2cncc(F)c2)sc1N(C)C(=O)C(C)C [Compound 41],80 to 100%,80 to 100%,123 °C,–,–
CSCC(C)(C)C(=O)N(C)c1sc(-c2cncnc2)nc1C [Compound 53],< 80%,80 to 100%,123 to 125 °C,–,–
CSCCC(=O)Nc1sc(-c2cccnc2)nc1C [Compound 55],80 to 100%,80 to 100%,136 to 139 °C,–,–
CSCC(C)C(=O)Nc1sc(-c2cccnc2)nc1C (stereo not drawn) [Compound 56],80 to 100%,80 to 100%,132 to 136 °C,–,–
Cc1nc(-c2cccnc2)sc1NC(=O)C(C)C [Compound 58],80 to 100%,80 to 100%,159 to 162 °C,–,–
CSCC(C)(C)C(=O)N(C)c1cnc(-c2ccc(Cl)nc2)s1 [Compound 68],80 to 100%,80 to 100%,104 to 108 °C,–,–
CC(C)C(=O)N(C)c1cnc(-c2ccc(Cl)nc2)s1 [Compound 69],< 80%,80 to 100%,155 to 159 °C,–,–
CSCCC(=O)N(C)c1cnc(-c2ccc(Cl)nc2)s1 [Compound 70],< 80%,< 80%,160 to 164 °C,–,–
Cc1nc(-c2ccc(F)nc2)sc1NC(=O)C(C)C [Compound 71],80 to 100%,–,182 to 186 °C,–,–
CC(C[S+](C)[O-])C(=O)N(C)c1cnc(-c2cccnc2)s1 (stereo not drawn) [Compound 79],80 to 100%,< 80%,135 to 140 °C,–,–
CN(C(=O)C(C)(C)C[S+](C)[O-])c1cnc(-c2cccnc2)s1 (stereo not drawn) [Compound 80],80 to 100%,80 to 100%,118 to 122 °C,–,–
CC(C[S+](C)[O-])C(=O)N(C)c1cnc(-c2cncc(F)c2)s1 (stereo not drawn) [Compound 81],80 to 100%,80 to 100%,68 to 70 °C,–,–

SMILES,pest or weed control at 200 ppm ([1]; green peach aphid),pest or weed control at 200 ppm ([2]; sweetpotato whitefly-crawler),melting point,pest or weed control at 200 ppm ([1]; Abbott's correction formula),pest or weed control at 200 ppm ([2]; Abbott's correction formula)
CN(C(=O)NCC[S+](C)[O-])c1cnc(-c2cncc(F)c2)s1 (stereo not drawn) [Compound 82],80 to 100%,< 80%,202 to 203 °C,–,–
CN(CC[S+](C)[O-])C(=O)N(C)c1cnc(-c2cncc(F)c2)s1 (stereo not drawn) [Compound 83],80 to 100%,80 to 100%,95 to 99 °C,–,–
CN(C(=O)OCC[S+](C)[O-])c1cnc(-c2cncc(F)c2)s1 (stereo not drawn) [Compound 84],80 to 100%,–,153 to 155 °C,–,–
CN(C(=O)C(C)(C)C[S+](C)[O-])c1cnc(-c2cncc(F)c2)s1 (stereo not drawn) [Compound 85],80 to 100%,80 to 100%,155 to 159 °C,–,–
Cc1nc(-c2cccnc2)sc1NC(=O)C(C)C[S+](C)[O-] (stereo not drawn) [Compound 92],80 to 100%,< 80%,160 to 163 °C,–,–
Cc1nc(-c2cccnc2)sc1NC(=O)C(C)(C)C[S+](C)[O-] (stereo not drawn) [Compound 94],80 to 100%,< 80%,55 to 60 °C,–,–
Cc1nc(-c2cncc(F)c2)sc1N(C)C(=O)C(C)CS(C)(=O)=O (stereo not drawn) [Compound 98],80 to 100%,80 to 100%,105 to 109 °C,–,–
Cc1nc(-c2cccnc2)sc1NC(=O)C(C)CS(C)(=O)=O (stereo not drawn) [Compound 99],80 to 100%,80 to 100%,175 to 180 °C,–,–
Cc1nc(-c2cccnc2)sc1NC(=O)CCS(C)(=O)=O [Compound 100],80 to 100%,< 80%,222 to 224 °C,–,–
Cc1nc(-c2cccnc2)sc1NC(=O)C(C)(C)CS(C)(=O)=O [Compound 101],80 to 100%,80 to 100%,134 to 136 °C,–,–
CSCCC(=O)Nc1sc(-c2cccnc2)nc1C(F)(F)F [Compound 133],80 to 100%,< 80%,131 to 133 °C,–,–
CC(C)C(=O)Nc1sc(-c2cccnc2)nc1C(F)(F)F [Compound 136],80 to 100%,< 80%,130 to 131 °C,–,–
Cc1nc(-c2cncc(F)c2)sc1NC(=O)C(C)C [Compound 140],80 to 100%,< 80%,155 to 159 °C,–,–
CSCC(C)C(=O)Nc1sc(-c2cncc(F)c2)nc1C (stereo not drawn) [Compound 141],80 to 100%,80 to 100%,110 to 113 °C,–,–
CSCCC(=O)Nc1sc(-c2cncc(F)c2)nc1C [Compound 142],80 to 100%,< 80%,126 to 130 °C,–,–
Cc1nc(-c2cncc(F)c2)sc1NC(=O)C(C)(C)C[S+](C)[O-] (stereo not drawn) [Compound 143],80 to 100%,< 80%,160 to 163 °C,–,–
CCN(C(=O)OC(C)(C)C)c1cnc(-c2cccnc2)s1 [Compound 477],–,–,65 to 67 °C,–,–
CCN(C(=O)c1cnn(C(C)(C)C)c1C)c1sc(-c2cccnc2)nc1Cl [Compound 578],–,–,–,80 to 100%,80 to 100%
Cc1nc(-c2cncc(F)c2)sc1N(C)C(=O)C1CCCNC1 (stereo not drawn) [Compound 581],–,–,–,< 80%,< 80%
"CCCC(C)C(=O)N1CCCC(C(=O)N(C)c2sc(-c3cncc(F)c3)nc2C)C1 (stereo not drawn) [Compound 582, 1-(2-methyl-pentanoyl)-piperidine-3-carboxylic acid [2-(5-fluoro-pyridin-3-yl)-4-methyl-thiazol-5-yl]-methyl-amide]",–,–,–,80 to 100%,80 to 100%
COCC(=O)N1CCCC(C(=O)N(C)c2sc(-c3cncc(F)c3)nc2C)C1 (stereo not drawn) [Compound 583],–,–,–,80 to 100%,80 to 100%
Cc1nc(-c2cncc(F)c2)sc1N(C)C(=O)C1CCCN(C(=O)CC(F)(F)F)C1 (stereo not drawn) [Compound 584],–,–,–,< 80%,< 80%
CCOC(=O)N1CCCC(C(=O)N(C)c2sc(-c3cncc(F)c3)nc2C)C1 (stereo not drawn) [Compound 586],–,–,–,80 to 100%,80 to 100%
CCCCN1CCCC(C(=O)N(C)c2sc(-c3cncc(F)c3)nc2C)C1 (stereo not drawn) [Compound 587],–,–,–,80 to 100%,80 to 100%
CSCC(C)C(=O)Nc1sc(-c2cccnc2)nc1Cl (stereo not drawn) [Compound 588],–,–,–,80 to 100%,80 to 100%
